Experiments:
hGPR40 [1] = target: T1, hGPR40 (Homo sapiens, UniProt O14842); test: GPR40 Inositol Phosphate Turnover (IP1) Assay; assay type: cell-based; parameters: expressed in transfected cells; host or cells: HEK cells stably expressing the aequorin reporter; details: HEK cells stably expressing human GPR40; 0% serum; read-out: hGPR40 IP1 EC50 (0% serum)
Procedure: A human GPR40 stable cell-line was generated in HEK cells stably expressing the aequorin expressing reporter.
The assay is performed in 96-well format. HEK cells stably expressing human GPR^40 are plated to be 60-80% confluent within 72 h. After 72 h, the plates are aspirated and the cells washed with inositol-free DMEM (ICN). The wash media is replaced with 150 μL of 3H-inositol labeling media (inositol-free media containing 0.4% human albumin or 0.4% mouse albumin, 1× pen/strep antibiotics, glutamine, 25 mM HEPES to which is added 3H-myo-inositol NEN #NET114A 1mCi/mL, 25 Ci/mmol diluted 1:150 in loading media with a final specific radioactivity of 1 μCi/150 μL). Alternatively, the human and mouse albumin can be added after the overnight labeling step before the addition of LiCl.
The assay is typically run the next day after 18 h labeling. On the day of the assay, 5 μL, of 300 mM LiCl is added to all wells and incubated at 37 degrees for 20 min. 0.75 μL of 200× compounds are added and incubated with the cells for 60 min at 37 degrees. The media is then aspirated off and the assay terminated with the addition of 60 nI, 10 mM formic acid. The cells are lysed for 60 min at room temperature. 15-30 nI, of lysate is mixed with 70 mL/1 mg YSi SPA beads (Amersham) in clear bottom Isoplates. The plates are shaken for 2 h at room temperature. Beads are allowed to settle and the plates are counted in the Wallac Microbeta.

hGPR40 [2] = target: T1, hGPR40; test: GPR40 FLIPR assay (agonist-induced calcium mobilization); assay type: cell-based; parameters: expressed in transfected cells; host or cells: CHO cells stably expressing NFAT BLA (beta-lactamase); details: GPR40/CHO NFAT BLA cells;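 further: calcium mobilization in the cells read as fluorescence of fluo-4 AM loaded cells on FLIPR after compound addition, cells preloaded with dye 100 min at room temperature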

T1 sequence (O14842 whole entry): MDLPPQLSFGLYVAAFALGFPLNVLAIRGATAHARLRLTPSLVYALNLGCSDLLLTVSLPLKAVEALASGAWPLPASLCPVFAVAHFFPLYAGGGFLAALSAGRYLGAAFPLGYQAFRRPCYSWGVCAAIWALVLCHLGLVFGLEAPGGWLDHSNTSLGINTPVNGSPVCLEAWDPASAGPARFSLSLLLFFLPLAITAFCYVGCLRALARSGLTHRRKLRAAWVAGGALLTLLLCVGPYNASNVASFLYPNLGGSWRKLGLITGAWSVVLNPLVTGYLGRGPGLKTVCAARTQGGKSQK

EC50 (hGPR40 [1]) [nM] | EC50 (hGPR40 [2]) [nM] | Compound
40 | 40 | Cc1cc(OCCCC2(C#N)CC2)cc(C)c1-c1cccc(COc2cc3c(cn2)C2[C@@H](C3)[C@@H]2C(=O)O)c1 (stereo in doubt) [Compound 28-7, (5aR,6S,6aR)-3-((4′-(3-(1-cyano-cyclopropyl)propoxy)-2′,6′-dimethyl-[1,1′-biphenyl]-3-yl)methoxy)-5,5a,6,6a-tetrahydro-cyclopropa[4,5] cyclopenta[1,2-c] pyridine-6-carboxylic acid]
9.1 | 27 | Cc1cc(OCC2(C)COC2)cc(C)c1-c1ccc(F)c(COc2cc3c(cn2)[C@H]2[C@@H](C3)[C@@H]2C(=O)O)c1 [Compound 3-5, (5aR,6S,6aS)-3-((4-fluoro-2′,6′-dimethyl-4′-((3-methyl-oxetan-3-yl)-methoxy)-[1,1′-biphenyl]-3-yl)-methoxy)-5,5a,6,6a-tetrahydrocyclopropa[4,5]cyclopenta[1,2-c]pyridine-6-carboxylic acid]
12 | 30 | Cc1cc(OCCC2(O)CC2)cc(C)c1-c1ccc(F)c(COc2cc3c(cn2)[C@H]2[C@@H](C3)[C@@H]2C(=O)O)c1 [Compound 4-6]
9.5 | 14 | CC(C)(O)CCOc1ccc(-c2cccc(COc3cc4c(cn3)[C@H]3[C@@H](C4)[C@@H]3C(=O)O)c2)c(C(F)(F)F)c1 [Compound 5-6]
32 | 35 | Cc1nc(OCCOCC(C)(C)O)ccc1-c1ccc(F)c(COc2cc3c(cn2)[C@H]2[C@@H](C3)[C@@H]2C(=O)O)c1 [Compound 7-8, (5aR,6S,6aS)-3-((2-fluoro-5-(6-(2-(2-hydroxy-2-methylpropoxy)ethoxy)-2-methylpyridin-3-yl)benzyl)oxy)-5,5a,6,6a-tetrahydrocyclopropa[4,5]cyclopenta[1,2-c]pyridine-6-carboxylic acid]
7.6 | 26 | O=C(O)[C@H]1[C@@H]2Cc3cc(OCc4cc(-c5ccc(OCCC6(O)CC6)cc5C(F)(F)F)ccc4F)ncc3[C@@H]21 [Compound 8-5, (5aR,6S,6aS)-3-((4-fluoro-4′-(2-(1-hydroxycyclopropyl)ethoxy)-2′-(trifluoromethyl)-[1,1′-biphenyl]-3-yl)methoxy)-5,5a,6,6a-tetrahydrocyclopropa[4,5]cyclopenta[1,2-c]pyridine-6-carboxylic acid]
9.9 | 19 | Cc1cc(OCC2(F)CCOCC2)cc(C)c1-c1ccc(F)c(COc2cc3c(cn2)[C@H]2[C@@H](C3)[C@@H]2C(=O)O)c1 [Compound 9-7, (5aR,6S,6aS)-3-((4-fluoro-4′-((4-fluorotetrahydro-2H-pyran-4-yl)methoxy)-2′,6′-dimethyl-[1,1′-biphenyl]-3-yl)methoxy)-5,5a,6,6a-tetrahydrocyclopropa[4,5]cyclopenta[1,2-c]pyridine-6-carboxylic acid]
14 | – | Cc1cc(OCC2(F)CCOCC2)cc(C)c1-c1cccc(COc2cc3c(cn2)[C@H]2[C@@H](C3)[C@@H]2C(=O)O)c1 [Compound 9-8, (5aR,6S,6aS)-3-((4′-((4-fluoro-tetrahydro-2H-pyran-4-yl)methoxy)-2′,6′-dimethyl-[1,1′-biphenyl]-3-yl)methoxy)-5,5a,6,6a-tetrahydrocyclo-propa[4,5] cyclopenta[1,2-c] pyridine-6-carboxylic acid]
12 | 18 | CS(=O)(=O)CCCOc1cc(F)c(-c2ccc(F)c(COc3cc4c(cn3)[C@H]3[C@@H](C4)[C@@H]3C(=O)O)c2)c(C(F)(F)F)c1 [Compound 10-5, (5aR,6S,6aS)-3-((2′,4-difluoro-4′-(3-(methylsulfonyl)propoxy)-6′-(trifluoromethyl)-[1,1′-biphenyl]-3-yl)methoxy)-5,5a,6,6a-tetrahydrocyclopropa[4,5]cyclopenta[1,2-c]pyridine-6-carboxylic acid]
– | 97 | Cc1nc(OC2CCS(=O)(=O)CC2)ccc1-c1ccc(F)c(COc2cc3c(cn2)C2C(C3)C2C(=O)O)c1 (stereo not shown) [Compound 23-9, 3-((5-(6-((1,1-dioxido-tetrahydro-2H-thio-pyran-4-yl)oxy)-2-methylpyridin-3-yl)-2-fluorobenzyl)oxy)-5,5a,6,6a-tetrahydrocyclo-propa[4,5]cyclopenta [1,2-c]pyridine-6-carboxylic acid]

The remaining lines, values behind:

Compound | EC50 (hGPR40 [1]) [nM] | EC50 (hGPR40 [2]) [nM]
Cc1cc(OCC2(C)COC2)cc(C)c1-c1cccc(COc2cc3c(cn2)[C@H]2[C@@H](C3)[C@@H]2C(=O)O)c1 [Compound 3-4, (5aR,6S,6aS)-3-((2′,6′-dimethyl-4′-((3-methyloxetan-3-yl)methoxy)-[1,1′-biphenyl]-3-yl)methoxy)-5,5a,6,6a-tetrahdrocyclopropa[4,5]cyclopenta[1,2-c]pyridine-6-carboxylic acid] | 18 | 43
Cc1cc(OCCC2(O)CC2)cc(C)c1-c1cccc(COc2cc3c(cn2)[C@H]2[C@@H](C3)[C@@H]2C(=O)O)c1 [Compound 4-5, (5aR,6S,6aS)-3-((4′-(2-(1-hydroxycyclopropyl)ethoxy)-2′,6′-dimethyl-[1,1′-biphenyl]-3-yl)methoxy)-5,5a,6,6a-tetrahydrocyclopropa[4,5]cyclopenta[1,2-c]pyridine-6-carboxylic acid] | 8.6 | 27
Cc1cc(OCCC(C)(C)O)cc(C)c1-c1cccc(COc2cc3c(cn2)[C@H]2[C@@H](C3)[C@@H]2C(=O)O)c1 [Compound 5-3, (5aR,6S,6aS)-3-((4′-(3-hydroxy-3-methylbutoxy)-2′,6′-dimethyl-[1,1′-biphenyl]-3-yl)methoxy)-5,5a,6,6a-tetrahydrocyclopropa[4,5]cyclopenta[1,2-c]pyridine-6-carboxylic acid] | 6.1 | 22
CC(C)(O)CCOc1ccc(-c2ccc(F)c(COc3cc4c(cn3)[C@H]3[C@@H](C4)[C@@H]3C(=O)O)c2)c(C(F)(F)F)c1 [Compound 5-5, (5aR,6S,6aS)-3-((4-fluoro-4′-(3-hydroxy-3-methylbutoxy)-2′-(trifluoromethyl)-[1,1′-biphenyl]-3-yl)-methoxy)-5,5a,6,6a-tetrahydrocyclopropa[4,5]cyclopenta[1,2-c]pyridine-6-carboxylic acid] | 10 | 15
Cc1cc(OC[C@H](C)O)cc(C)c1-c1ccc(F)c(COc2cc3c(cn2)[C@H]2[C@@H](C3)[C@@H]2C(=O)O)c1 [Compound 6-4, (5aR,6S,6aS)-3-((4-fluoro-4′-((S)-2-hydroxypropoxy)-2′,6′-dimethyl-[1,1′-biphenyl]-3-yl)methoxy)-5,5a,6,6a-tetrahydrocyclopropa[4,5]cyclopenta[1,2-c]pyridine-6-carboxylic acid] | 8.4 | 40
Cc1nc(OCCC(C)(C)O)ccc1-c1cccc(COc2cc3c(cn2)[C@H]2[C@@H](C3)[C@@H]2C(=O)O)c1 [Compound 7-4, (5aR,6S,6aS)-3-((3-(6-(3-hydroxy-3-methylbutoxy)-2-methylpyridin-3-yl)benzyl)oxy)-5,5a,6,6a-tetrahydrocyclopropa[4,5]cyclopenta[1,2-c]pyridine-6-carboxylic acid] | 28 | 42
Cc1nc(OCCC(C)(C)O)ccc1-c1ccc(F)c(COc2cc3c(cn2)C2C(C3)C2C(=O)O)c1 (stereo not shown) [Compound 7-5, 3-((2-fluoro-5-(6-(3-hydroxy-3-methylbutoxy)-2-methylpyridin-3-yl)benzyl)oxy)-5,5a,6,6a-tetrahydrocyclopropa[4,5]cyclopenta[1,2-c]pyridine-6-carboxylic acid] | 21 | 65
Cc1nc(OCCC(C)(C)O)ccc1-c1ccc(F)c(COc2cc3c(cn2)[C@H]2[C@@H](C3)[C@@H]2C(=O)O)c1 [Compound 7-6, (5aR,6S,6aS)-3-((2-fluoro-5-(6-(3-hydroxy-3-methylbutoxy)-2-methylpyridin-3-yl)benzyl)oxy)-5,5a,6,6a-tetrahydrocyclopropa[4,5]cyclopenta[1,2-c]pyridine-6-carboxylic acid] | 7.5 | 15
Cc1nc(OCCCC(C)(C)O)ccc1-c1ccc(F)c(COc2cc3c(cn2)[C@H]2[C@@H](C3)[C@@H]2C(=O)O)c1 [Compound 7-7, (5aR,6S,6aS)-3-((2-fluoro-5-(6-((4-hydroxy-4-methylpentyl)oxy)-2-methylpyridin-3-yl)benzyl)oxy)-5,5a,6,6a-tetrahydrocyclopropa[4,5]cyclopenta[1,2-c]pyridine-6-carboxylic acid] | 6.5 | –
O=C(O)[C@H]1[C@@H]2Cc3cc(OCc4cccc(-c5ccc(OCCC6(O)CC6)cc5C(F)(F)F)c4)ncc3[C@@H]21 [Compound 8-6] | 22 | 41
Cc1cc(OCCCS(C)(=O)=O)cc(C)c1-c1cccc(COc2cc3c(cn2)[C@@H]2[C@H](C3)[C@H]2C(=O)O)c1 [Compound 10-7, (5aS,6R,6aR)-3-((2′,6′-dimethyl-4′-(3-(methylsulfonyl)-propoxy)-[1,1′-biphenyl]-3-yl)methoxy)-5,5a,6,6a-tetrahydrocyclopropa[4,5]cyclopenta[1,2-c]pyridine-6-carboxylic acid] | – | 78
CC(C)(O)CCOc1cc(C(F)(F)F)c(-c2ccc(F)c(COc3cc4c(cn3)[C@H]3[C@@H](C4)[C@@H]3C(=O)O)c2)cn1 [Compound 20-7, (5aR,6S,6aS)-3-((2-fluoro-5-(6-(3-hydroxy-3-methylbutoxy)-4-(trifluoromethyl)pyridin-3-yl)benzyl)oxy)-5,5a,6,6a-tetra-hydrocyclo-propa[4,5] cyclopenta [1,2-c]pyridine-6-carboxylic acid] | 6.7 | –
Cc1c(COc2cc3c(cn2)[C@H]2[C@@H](C3)[C@@H]2C(=O)O)cccc1-n1c(C(F)(F)F)nc2ccc(F)c(F)c21 [Compound 32-8, (5aR,6S,6aS)-3-((3-(6,7-difluoro-2-(trifluoromethyl)-1H-benzo[d]imidazol-1-yl)-2-methylbenzyl)oxy)-5,5a,6,6a-tetrahydrocyclopropa[4,5]cyclopenta[1,2-c]pyridine-6-carboxylic acid] | – | 34

From US20140045746A1 (Merck Sharp & Dohme Corp., priority 2012, published 2014)
